Experimental data taken from patent publication US20230095836A1, “SUBSTITUTED 5,6-DIPHENYL-3(2H)-PYRIDAZINONES FOR USE AS FUNGICIDES” (FMC Corporation, priority 2020, published 2023).

Assays:
Alternaria solani = assay: Test F: test suspension sprayed on tomato seedlings, inoculated next day with Alternaria solani (tomato early blight); visual disease rating (100 = 100% disease control, 0 = no control; dash = not tested); type: in vivo; details: for pest or weed control at 50 ppm / Test F disease control rating: 50 ppm
Summary of the method: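 Visual ratings of % disease control versus controls were made after inoculated plants spent 48 h at 27° C. in saturated air plus 3 days at 20° C. The compound suspension had been sprayed to run-off one day before spore inoculation.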

Botrytis cinerea = assay: Test E: test suspension sprayed on tomato seedlings, inoculated next day with Botrytis cinerea (tomato Botrytis); visual disease rating (100 = 100% disease control, 0 = no control; dash = not tested); type: in vivo; details: for pest or weed control at 50 ppm / Test E disease control rating: 50 ppm
Summary of the method: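 Spores were applied one day after spraying the seedlings to run-off. Incubation was 48 h saturated at 20° C, then 3 days in a 24° C growth chamber. Visual ratings, relative to untreated controls, run from 0 (no control) to 100 (complete control).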

Phakopsora pachyrhizi = assay: Test D: test solution sprayed on soybean seedlings, inoculated next day with Phakopsora pachyrhizi (Asian soybean rust); visual disease rating (100 = 100% disease control, 0 = no control; dash = not tested); type: in vivo; details: for pest or weed control at 50 ppm / Test D disease control rating: 50 ppm
Summary of the method: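 Preventive spray test: soybean seedlings treated to run-off with ppm-level suspensions (acetone/water 50/50, 250 ppm PEG400), spore-inoculated one day later. Held 24 h at 22 °C in saturated air, then 8 days at 22 °C; disease control scored visually versus untreated plants, 0 = none, 100 = complete.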

[1] = tested on: Blumeria graminis f. sp. tritici; assay: Test C: test suspension sprayed on wheat seedlings, inoculated next day with Blumeria graminis f. sp. tritici (wheat powdery mildew); visual disease rating (100 = 100% disease control, 0 = no control; dash = not tested); type: in vivo; details: for pest or weed control at 50 ppm / Test C disease control rating: 50 ppm
Summary of the method: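 Visual ratings of disease control (0–100, relative to controls) were made 8 days after inoculation with B. graminis f. sp. tritici spore dust. Plants were held at 20 °C. Compound was applied as a spray to run-off one day before inoculation.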

Zymoseptoria tritici = assay: Test A: test solution sprayed on wheat seedlings, inoculated next day with Zymoseptoria tritici (wheat leaf blotch); disease rating (100 = 100% disease control, 0 = no control; dash = not tested); type: in vivo; details: for pest or weed control at 50 ppm / Test A disease control rating: 50 ppm
Summary of the method: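 Preventive spray test: compound applied to run-off one day before spore inoculation of wheat seedlings. Incubation was 48 h saturated humidity at 24° C followed by 17 days at 20° C. Disease then scored 0–100 as % control versus untreated plants.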

[2] = tested on: Puccinia recondita f. sp. tritici; assay: Test B: test solution sprayed on wheat seedlings, inoculated next day with Puccinia recondita f. sp. tritici (wheat leaf rust); disease rating (100 = 100% disease control, 0 = no control; dash = not tested); type: in vivo; details: for pest or weed control at 50 ppm / Test B disease control rating: 50 ppm
Source text: The resulting test suspensions were then used in Tests A-F. The test solution was sprayed to the point of run-off on wheat seedlings. […] A rating of 100 indicates 100% disease control and a rating of 0 indicates no disease control (relative to the controls). A dash (—) indicates the compound was not tested.

melting point [°C] | Structure (SMILES) | pest or weed control at 250 ppm (Alternaria solani) [%] | pest or weed control at 250 ppm (Botrytis cinerea) [%] | pest or weed control at 250 ppm (Phakopsora pachyrhizi) [%] | pest or weed control at 250 ppm [1] [%] | pest or weed control at 250 ppm (Zymoseptoria tritici) [%] | pest or weed control at 250 ppm [2] [%] | pest or weed control at 50 ppm (Alternaria solani) [%] | pest or weed control at 50 ppm (Botrytis cinerea) [%] | pest or weed control at 50 ppm (Phakopsora pachyrhizi) [%] | pest or weed control at 50 ppm [1] [%] | pest or weed control at 50 ppm (Zymoseptoria tritici) [%] | pest or weed control at 50 ppm [2] [%] | Test F disease control rating (Alternaria solani) [%] | Test E disease control rating (Botrytis cinerea) [%] | Test D disease control rating (Phakopsora pachyrhizi) [%] | Test C disease control rating [1] [%] | Test A disease control rating (Zymoseptoria tritici) [%] | Test B disease control rating [2] [%]
132 to 136 | COc1cc(OC)cc(-c2nn(C)c(=O)cc2-c2c(F)cccc2F)c1 [Compound 38, 5-(2,6-difluorophenyl)-6-(3,5-dimethoxyphenyl)-2-methyl-3(2H)-pyridazinone] | 0 | 98 | 0 | 81 | 98 | 99 |  |  |  |  |  |  |  |  |  |  |  | 
139 to 142 | COc1cc(OC)cc(C2=NN(C)C(=O)CC2c2c(F)cccc2F)c1 (stereo not shown) [Compound 39, 5-(2,6-difluorophenyl)-6-(3,5-dimethoxyphenyl)-4,5-dihydro-2-methyl-3(2H)-pyridazinone] | 0 | 99 | 0 | 69 | 98 | 86 |  |  |  |  |  |  |  |  |  |  |  | 
126 to 129 | Cc1c(-c2ccc(F)cc2Cl)c(-c2ccc(F)cc2Cl)nn(C)c1=O [Compound 44, 5,6-bis(2-chloro-4-fluorophenyl)-2,4-dimethyl-3(2H)-pyridazinone] |  |  |  |  |  |  | 100 | 93 | 100 | 100 | 100 | 100 |  |  |  |  |  | 
134 to 137 | COc1ccc(Cl)c(-c2nn(C)c(=O)c(Cl)c2-c2c(F)cccc2F)c1 [Compound 57, 4-chloro-6-(2-chloro-5-methoxyphenyl)-5-(2,6-difluorophenyl)-2-methyl-3(2H)-pyridazinone] |  |  |  |  |  |  | 100 | 99 | 99 | 99 | 100 | 100 |  |  |  |  |  | 
85 to 90 | COc1cc(OC)c(Cl)c(-c2nn(C)c(=O)c(Cl)c2-c2ccc(F)cc2Cl)c1 [Compound 58, 4-chloro-6-(2-chloro-3,5-dimethoxyphenyl)-5-(2-chloro-4-fluorophenyl)-2-methyl-3(2H)-pyridazinone] |  |  |  |  |  |  | 100 | 99 | 100 | 100 | 100 | 100 |  |  |  |  |  | 
140 to 143 | COc1cc(OC)c(Cl)c(-c2nn(C)c(=O)c(C)c2-c2ccc(F)cc2Cl)c1 [Compound 66, 6-(2-chloro-3,5-dimethoxyphenyl)-5-(2-chloro-4-fluorophenyl)-2,4-dimethyl-3(2H)-pyridazinone] |  |  |  |  |  |  | 100 | 100 | 100 | 100 | 100 | 100 |  |  |  |  |  | 

Second part, the compound before the results:

Structure (SMILES) | melting point [°C] | pest or weed control at 250 ppm (Alternaria solani) [%] | pest or weed control at 250 ppm (Botrytis cinerea) [%] | pest or weed control at 250 ppm (Phakopsora pachyrhizi) [%] | pest or weed control at 250 ppm [1] [%] | pest or weed control at 250 ppm (Zymoseptoria tritici) [%] | pest or weed control at 250 ppm [2] [%] | pest or weed control at 50 ppm (Alternaria solani) [%] | pest or weed control at 50 ppm (Botrytis cinerea) [%] | pest or weed control at 50 ppm (Phakopsora pachyrhizi) [%] | pest or weed control at 50 ppm [1] [%] | pest or weed control at 50 ppm (Zymoseptoria tritici) [%] | pest or weed control at 50 ppm [2] [%] | Test F disease control rating (Alternaria solani) [%] | Test E disease control rating (Botrytis cinerea) [%] | Test D disease control rating (Phakopsora pachyrhizi) [%] | Test C disease control rating [1] [%] | Test A disease control rating (Zymoseptoria tritici) [%] | Test B disease control rating [2] [%]
Cn1nc(-c2ccc(F)cc2Cl)c(-c2ccc(F)cc2Cl)c(C#N)c1=O [Compound 6, 5,6-bis(2-chloro-4-fluorophenyl)-2,3-dihydro-2-methyl-3-oxo-4-pyridazine-carbonitrile] | 137 to 140 | 99 | 99 | 0 | 92 | 100 | 100 |  |  |  |  |  |  |  |  |  |  |  | 
COc1cc(OC)c(Cl)c(-c2nn(C)c(=O)cc2-c2c(F)cccc2F)c1 [Compound 12, 6-(2-chloro-3,5-dimethoxyphenyl)-5-(2,6-difluorophenyl)-2-methyl-3(2H)-pyridazinone] | 172 to 176 | 0 | 99 | 100 | 100 | 100 | 100 |  |  |  |  |  |  |  |  |  |  |  | 
COc1cc(OC)c([N+](=O)[O-])c(-c2nn(C)c(=O)cc2-c2c(F)cccc2F)c1 [Compound 13, 5-(2,6-difluorophenyl)-6-(3,5-dimethoxy-2-nitrophenyl)-2-methyl-3(2H)-pyridazinone] | 174 to 178 | 9 | 99 | 63 | 81 | 94 | 99 |  |  |  |  |  |  |  |  |  |  |  | 
COc1cc(-c2nn(C)c(=O)cc2-c2c(F)cccc2F)cc(OC)c1Cl [Compound 14, 6-(4-chloro-3,5-dimethoxyphenyl)-5-(2,6-difluorophenyl)-2-methyl-3(2H)-pyridazinone] | 221 to 225 | 0 | 0 | 0 | 0 | 88 | 80 |  |  |  |  |  |  |  |  |  |  |  | 
COc1cc(OC)c(Cl)c(-c2nn(C)c(=O)cc2-c2ccc(F)cc2Cl)c1 [Compound 25, 6-(2-chloro-3,5-dimethoxyphenyl)-5-(2-chloro-4-fluorophenyl)-2-methyl-3(2H)-pyridazinone] | 121 to 125 |  |  |  |  |  |  | 85 | 100 | 94 | 98 | 100 | 100 |  |  |  |  |  | 
CCN1N=C(c2cc(OC)cc(OC)c2)C(c2c(F)cccc2F)CC1=O (stereo not shown) [Compound 33, 5-(2,6-difluorophenyl)-6-(3,5-dimethoxyphenyl)-4,5-dihydro-2-ethyl-3(2H)-pyridazinone] | 119 to 122 | 0 | 0 | 0 | 0 | 0 | 55 |  |  |  |  |  |  |  |  |  |  |  | 
COc1cc(OC)cc(-c2nn(C)c(=O)c(Br)c2-c2c(F)cccc2F)c1 [Compound 34, 4-bromo-5-(2,6-difluorophenyl)-6-(3,5-dimethoxyphenyl)-2-methyl-3(2H)-pyridazinone] | 153 to 157 | 99 | 99 | 99 | 95 | 100 | 89 |  |  |  |  |  |  |  |  |  |  |  | 
COc1cc(OC)c(Cl)c(-c2nn(C)c(=O)c(Cl)c2-c2c(F)cccc2F)c1 [Compound 35, 4-chloro-6-(2-chloro-3,5-dimethoxyphenyl)-5-(2,6-difluorophenyl)-2-methyl-3(2H)-pyridazinone] | 192 to 196 | 99 | 99 | 100 | 100 | 100 | 100 |  |  |  |  |  |  |  |  |  |  |  | 
COc1cc(OC)cc(-c2nn(C)c(=O)c(Cl)c2-c2c(F)cccc2F)c1 [Compound 36, 4-chloro-5-(2,6-difluorophenyl)-6-(3,5-dimethoxyphenyl)-2-methyl-3(2H)-pyridazinone] | 150 to 154 | 99 | 100 | 93 | 99 | 100 | 100 |  |  |  |  |  |  |  |  |  |  |  | 
COc1cc(OC)c([N+](=O)[O-])c(-c2nn(C)c(=O)c(Cl)c2-c2c(F)cccc2F)c1 [Compound 37, 4-chloro-5-(2,6-difluorophenyl)-6-(3,5-dimethoxy-2-nitrophenyl)-2-methyl-3(2H)-pyridazinone] | 223 to 227 | 99 | 99 | 100 | 98 | 99 | 100 |  |  |  |  |  |  |  |  |  |  |  | 
COc1cc(F)cc(-c2nn(C)c(=O)cc2-c2c(F)cccc2F)c1Cl [Compound 206] |  |  |  |  |  |  |  |  |  |  |  |  |  | 76 | 100 | 65 | 93 | 97 | 100
COc1ccc(Cl)c(C2=NN(C)C(=O)CC2c2c(F)cccc2F)c1 (stereo not shown) [Compound 207] |  |  |  |  |  |  |  |  |  |  |  |  |  | 0 | 100 | 0 | 90 | 79 | 68
COc1ccc(Cl)c(C2=NN(C)C(=O)C(C)C2c2c(F)cccc2F)c1 (stereo not shown) [Compound 208] |  |  |  |  |  |  |  |  |  |  |  |  |  | 100 | 100 | 0 | 99 | 96 | 100
